US12486303B2, “Use of peptide for inhibiting functions and expressions of multiple disease biomarkers” (NIBEC CO., LTD., priority 2018, dated 2025)

How the values were obtained:
[1] = tested on: high-fat diet C57BL/6 mice; assay: Non-alcoholic hepatitis animal model induced by high-fat diet; format: in vivo; details: 7 weeks, peptide 15 or 30 mg/kg
Description: In order to determine whether or not the peptide according to the present invention has the effect of treating hepatitis and inhibiting obesity in vivo, a non-alcoholic hepatitis animal model induced by a high-fat diet was used. Male C57BL/6 mice (7 weeks old) were acclimated for 1 week and a total of 20 animals were divided into four experimental groups (n=5 per group), namely, a normal diet group (control), a high-fat diet group (DIO: HFD-induced obesity), a group injected with a low dose of the peptide of SEQ ID NO: 1 (LD SEQ ID NO: 1, 15 mg/kg) and a group injected with a high dose of the peptide of SEQ ID NO: 1 (HD SEQ ID NO: 1, 30 mg/kg), and were reared with the high-fat diet or the normal diet for 7 weeks. The high-fat diet was a 60% high-fat diet (Dyets, Inc). During 7 weeks of rearing, body weight and feed intake were measured twice a week. On the 50th day after 7 weeks of rearing, the animals were sacrificed, and liver and adipose tissues were collected and sized.

[2] = tested on: TNBS-induced colitis rats; assay: TNBS colitis-induced animal model; format: in vivo
Method: In order to determine whether or not the peptide according to the present invention has the effect of treating inflammatory colitis in vivo, the effect of treating colitis in a colitis-induced animal model was detected. Before induction of colitis, rats were allowed to drink water freely, although food was not supplied thereto for 24 hours. The rats were lightly anesthetized with ether. A rubber cannula (o.d., 2 mm) was inserted into the colon, the end of which was about 8 cm away from the anus and was located near the splenic flexure. 2,4,6-trinitro benzene sulfonic acid (TNBS; Sigma Chemical Co, St Louis, Missouri, USA) dissolved in a 50% (v/v) ethanolic aqueous solution was injected into the colon through the rubber cannula (15 mg/0.3 mL/rat). 72 hours after induction of colitis, the peptide of SEQ ID NO: 1 (30 mg/kg) was intraperitoneally injected once a day, and after administration for 7 days, the rats were sacrificed. The weight of the rats was measured at 9 AM every day, and the length of the colon was measured from the cecum to the anus using a vernier caliper (Mitutoyo, Japan) after rat sacrifice.
The extracted large intestine was frozen and stored at −70° ° C., the mucous membrane tissue was collected from the muscle layer of the large intestine, the weight of the mucous membrane tissue was measured, and 10 mg of the mucous membrane tissue was lysed in a triple wash buffer (50 mM Tris-HCl, pH 8.0, 150 mM NaCl, 0.1% sodium deoxycholate and 1 mM phenylmethysulfonyl and homogenized. Then, p40, TNF-α, and IL-12 were assayed using an ELISA kit (R&D, Minneapolis, MN, USA).

[3] = tested on: HDAC5; assay: Phospho explorer antibody microarray of LPS-treated RAW 264.7 cells: HDAC5; format: cell-based; details: 200 μM peptide 1 hour then LPS 1 μg/mL 30 minutes, compared to cells treated with only LPS
Method: (§1) RAW 264.7 cells were starved in 0.5% FBS for 2 hours and treated with 200 μM of the peptide of SEQ ID NO: 1 for 1 hour, and then inflammation was induced at 37° C. for 30 minutes with LPS (1 μg/mL). Cell lysates of untreated cells (NT), cells treated with LPS, and cells treated with SEQ ID NO: 1 and LPS were applied to a Phospho explorer antibody microarray from Full Moon Biosystems. The phospho microarray is capable of recognizing 1318 antibodies related to 30 signaling systems. A standard-size coated glass microscope slide was coated with each antibody. =It was scanned with a GenePix 4100A scanner (Axon Instrument, Foster City, CA, USA). Data were analyzed with Genowiz 4.0™ (Ocimum Biosolutions, Hyderabad, India). The phosphorylation ratio was calculated as follows.
(§2) Formula for calculating phosphorylation ratio in each antibody: Phosphorylation ratio=(phosphorylation value of experimental group/non-phosphorylation value of experimental group)/(phosphorylation value of control group/non-phosphorylation value of control group)

[4] = tested on: IκBα; assay: Phospho explorer antibody microarray of LPS-treated RAW 264.7 cells: IκBα; format: cell-based; details: 200 μM peptide 1 hour then LPS 1 μg/mL 30 minutes, compared to cells treated with only LPS
Method: as §1, §2

[5] = tested on: NF-κB p100/p52; assay: Phospho explorer antibody microarray of LPS-treated RAW 264.7 cells: NF-κB p100/p52; format: cell-based; details: 200 μM peptide 1 hour then LPS 1 μg/mL 30 minutes, compared to cells treated with only LPS
Method: as §1, §2

[6] = tested on: NF-κB p105/p50; assay: Phospho explorer antibody microarray of LPS-treated RAW 264.7 cells: NF-κB p105/p50; format: cell-based; details: 200 μM peptide 1 hour then LPS 1 μg/mL 30 minutes, compared to cells treated with only LPS
Method: as §1, §2

[7] = target: T1, HDAC5 protein (Homo sapiens, UniProt Q9UQL6); assay: Biacore T200 binding affinity to immobilised HDAC5 protein; details: CM5 chip, 1:1 binding model
T1 construct: purchased Abcam
T1 sequence (Q9UQL6 whole entry, species assumed): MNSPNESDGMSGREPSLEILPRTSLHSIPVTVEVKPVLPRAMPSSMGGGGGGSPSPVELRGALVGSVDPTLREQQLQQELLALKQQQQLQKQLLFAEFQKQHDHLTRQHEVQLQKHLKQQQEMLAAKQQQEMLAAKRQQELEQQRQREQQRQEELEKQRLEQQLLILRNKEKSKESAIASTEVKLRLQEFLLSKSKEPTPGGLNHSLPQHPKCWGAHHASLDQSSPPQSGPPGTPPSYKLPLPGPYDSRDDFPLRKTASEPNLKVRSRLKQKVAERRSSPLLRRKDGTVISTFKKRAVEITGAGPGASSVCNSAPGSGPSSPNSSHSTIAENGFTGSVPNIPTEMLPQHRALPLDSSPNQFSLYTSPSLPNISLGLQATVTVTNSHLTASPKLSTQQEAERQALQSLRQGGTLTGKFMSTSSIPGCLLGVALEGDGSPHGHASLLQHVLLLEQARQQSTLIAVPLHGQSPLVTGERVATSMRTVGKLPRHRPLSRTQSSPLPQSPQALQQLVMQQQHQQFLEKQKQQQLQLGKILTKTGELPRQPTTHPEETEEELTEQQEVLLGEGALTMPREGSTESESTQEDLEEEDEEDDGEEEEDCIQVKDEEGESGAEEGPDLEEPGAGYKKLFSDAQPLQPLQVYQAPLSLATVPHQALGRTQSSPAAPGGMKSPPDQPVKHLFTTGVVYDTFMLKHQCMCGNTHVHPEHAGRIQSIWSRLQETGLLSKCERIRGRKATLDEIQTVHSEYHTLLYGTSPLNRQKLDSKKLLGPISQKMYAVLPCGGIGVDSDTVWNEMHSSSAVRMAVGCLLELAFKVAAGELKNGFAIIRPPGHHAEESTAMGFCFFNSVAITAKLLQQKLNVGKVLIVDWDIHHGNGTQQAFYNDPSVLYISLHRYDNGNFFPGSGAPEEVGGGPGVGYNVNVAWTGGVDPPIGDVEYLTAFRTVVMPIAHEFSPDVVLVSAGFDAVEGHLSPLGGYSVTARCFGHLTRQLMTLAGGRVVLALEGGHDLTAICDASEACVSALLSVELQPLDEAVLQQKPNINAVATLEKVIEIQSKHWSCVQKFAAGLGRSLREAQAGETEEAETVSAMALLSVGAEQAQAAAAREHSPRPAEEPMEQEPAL
Method: For this purpose, HDAC5 protein (Abcam, MA, USA) was dissolved in sodium acetate buffer (pH 4.5), and was bound to a dextran-covered sensor chip surface (CM5 chip) using N-hydroxysuccinimide (NHS) and N-ethyl-N0-(3-dimethylaminopropyl)-carbodiimide hydrochloride (EDAC) as crosslinkers. The unreacted active group of dextran was blocked by the addition of ethanolamine (1M) thereto. The number of HDAC5 binding to the chip was measured as 4440RU (1000 RU=1 ng/mm^2). […] Rate constants for association (ka) and dissociation (kd), and a dissociation constant (KD) were calculated using BIAevaluation software and a 1:1 binding model.

Compound: C[C@@H](O)[C@H](NC(=O)[C@H](CO)NC(=O)[C@H](CS)NC(=O)[C@H](CCCCN)NC(=O)CN)C(=O)N[C@@H](CCCNC(=N)N)C(=O)NCC(=O)N[C@@H](CCCNC(=N)N)C(=O)N[C@@H](CCCCN)C(=O)N[C@@H](CS)C(=O)N[C@@H](CS)C(=O)N[C@@H](CCCNC(=N)N)C(=O)N[C@@H](CCCNC(=N)N)C(=O)N[C@@H](CCCCN)C(=O)N[C@@H](CCCCN)C(=O)O [SEQ ID NO: 1]
- Size of subcutaneous fat [1]: decreased
- Size of the liver [1]: decreased
- Expression of IL-12 in large intestine mucous membrane tissue (ELISA) ([2]; 30 mg/kg intraperitoneally): decreased
- Expression of TNF-α in large intestine mucous membrane tissue (ELISA) ([2]; 30 mg/kg intraperitoneally): decreased
- Expression of p40 in large intestine mucous membrane tissue (ELISA) ([2]; 30 mg/kg intraperitoneally): decreased
- Visual observation of large intestine ([2]; 30 mg/kg intraperitoneally once a day, 7 days, 8th day): appeared similar to the normal group (CON), indicating that colitis was remarkably suppressed
- Phosphorylation ratio of HDAC5 [3]: 0.278
- Phosphorylation ratio of IκBα [4]: 0.509
- Phosphorylation ratio of NF-κB p100/p52 [5]: 0.451
- Phosphorylation ratio of NF-κB p105/p50 [6]: 0.485
- kd [7]: 0.07264 s⁻¹
- kon ([7]; read-out: ka): 108000 M⁻¹ s⁻¹
